Results: ChEMBL document CHEMBL1152994, “Plasmid-mediated carbapenem-hydrolyzing beta-lactamase KPC-2 in Klebsiella pneumoniae isolate from Greece” (2008)
≈ marks a conversion by molar mass, not a printed value.

Tests used:
Escherichia coli [1] = assay: Antibacterial activity against Escherichia coli J53 by E test method; assay type: functional
Klebsiella pneumoniae = assay: Antibacterial activity against Klebsiella pneumoniae Greece producing KPC-2 beta-lactamase by E test method; assay type: functional
Escherichia coli [2] = assay: Antibacterial activity against Escherichia coli J53 expressing Klebsiella pneumoniae Greece blaKPC-2 gene by E test method; assay type: functional
[3] = target: T1, Class A carbapenemase (Klebsiella pneumoniae) (UniProt A9LM97); assay: Activity at Klebsiella pneumoniae Greece Carbapenem-Hydrolyzing-Lactamase KPC-2 assessed per mg of total protein by spectrophotometrically
T1 sequence (whole entry): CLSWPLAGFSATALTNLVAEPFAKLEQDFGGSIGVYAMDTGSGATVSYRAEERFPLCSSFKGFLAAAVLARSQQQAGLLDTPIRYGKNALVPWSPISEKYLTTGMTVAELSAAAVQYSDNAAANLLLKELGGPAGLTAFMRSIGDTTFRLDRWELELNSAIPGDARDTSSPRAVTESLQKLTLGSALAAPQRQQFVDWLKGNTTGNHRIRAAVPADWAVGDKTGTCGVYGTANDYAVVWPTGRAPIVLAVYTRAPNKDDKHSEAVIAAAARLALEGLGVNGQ

Compound	MIC (Escherichia coli [1])	MIC (Klebsiella pneumoniae)	MIC (Escherichia coli [2])	Activity [3]
CC1(C)S[C@@H]2[C@H](NC(=O)[C@H](N)c3ccc(O)cc3)C(=O)N2[C@H]1C(=O)O [AMOXICILLIN]	4 mg/L (≈ 10.9 µM)	> 256 mg/L	> 256 mg/L	
C[C@H]1[C@H](NC(=O)/C(=N\OC(C)(C)C(=O)O)c2csc(N)n2)C(=O)N1S(=O)(=O)O [AZTREONAM]		> 256 mg/L	16 mg/L (≈ 36.7 µM)	
CO/N=C(\C(=O)N[C@@H]1C(=O)N2C(C(=O)[O-])=C(C[N+]3(C)CCCC3)CS[C@H]12)c1csc(N)n1 [CEFEPIME]	0.03 mg/L (≈ 0.0624 µM)	> 256 mg/L	1.5 mg/L (≈ 3.12 µM)	
CO/N=C(\C(=O)N[C@@H]1C(=O)N2C(C(=O)O)=C(COC(C)=O)CS[C@H]12)c1csc(N)n1 [CEFOTAXIME]	0.06 mg/L (≈ 0.132 µM)	> 32 mg/L	4 mg/L (≈ 8.78 µM)	
CO[C@@]1(NC(=O)Cc2cccs2)C(=O)N2C(C(=O)O)=C(COC(N)=O)CS[C@@H]21 [CEFOXITIN]	2 mg/L (≈ 4.68 µM)	64 mg/L (≈ 150 µM)	4 mg/L (≈ 9.36 µM)	
CC(C)(O/N=C(\C(=O)N[C@@H]1C(=O)N2C(C(=O)[O-])=C(C[n+]3ccccc3)CS[C@H]12)c1csc(N)n1)C(=O)O [CEFTAZIDIME]	0.06 mg/L (≈ 0.11 µM)	> 256 mg/L	4 mg/L (≈ 7.32 µM)	
CC(=O)OCC1=C(C(=O)O)N2C(=O)[C@@H](NC(=O)Cc3cccs3)[C@H]2SC1 [CEPHALOTHIN]	1 mg/L (≈ 2.52 µM)	> 256 mg/L	> 256 mg/L	
C[C@@H](O)[C@H]1C(=O)N2C(C(=O)O)=C(S[C@@H]3CN[C@H](C(=O)Nc4cccc(C(=O)O)c4)C3)[C@H](C)[C@H]12 [ERTAPENEM]	0.03 mg/L (≈ 0.0631 µM)	12 mg/L (≈ 25.2 µM)	0.38 mg/L (≈ 0.799 µM)	0.05 µmol
C[C@@H](O)[C@H]1C(=O)N2C(C(=O)O)=C(SCCNC=N)C[C@H]12 [IMIPENEM ANHYDROUS]		12 mg/L (≈ 40.1 µM)	1.5 mg/L (≈ 5.01 µM)	0.2 µmol
C[C@@H](O)[C@H]1C(=O)N2C(C(=O)O)=C(S[C@@H]3CN[C@H](C(=O)N(C)C)C3)[C@H](C)[C@H]12 [MEROPENEM]	0.03 mg/L (≈ 0.0782 µM)	6 mg/L (≈ 15.6 µM)	0.38 mg/L (≈ 0.991 µM)	0.06 µmol
CCN1CCN(C(=O)N[C@@H](C(=O)N[C@@H]2C(=O)N3[C@@H]2SC(C)(C)[C@@H]3C(=O)O)c2ccccc2)C(=O)C1=O [PIPERACILLIN]	1 mg/L (≈ 1.93 µM)	> 256 mg/L	128 mg/L (≈ 247 µM)	
CC1(C)S[C@@H]2[C@H](NC(=O)[C@H](C(=O)O)c3ccsc3)C(=O)N2[C@H]1C(=O)O [TICARCILLIN]	2 mg/L (≈ 5.2 µM)	> 256 mg/L	> 256 mg/L	
CN(C)c1cc(NC(=O)CNC(C)(C)C)c(O)c2c1C[C@H]1C[C@H]3[C@H](N(C)C)C(O)=C(C(N)=O)C(=O)[C@@]3(O)C(O)=C1C2=O [TIGECYCLINE]	0.5 mg/L (≈ 0.854 µM)	3 mg/L (≈ 5.12 µM)	0.5 mg/L (≈ 0.854 µM)	
COLISTIN	0.38 mg/L	128 mg/L	0.38 mg/L	
GENTAMICIN	0.064 mg/L	1.5 mg/L	0.064 mg/L	
